{"source": "the NIST ThermoML archive (doi:10.1021/je050261u)", "experiment": "xn = mol fraction of the nth substance listed", "details": "Liquid, Vibrating tube method, x1 = 1", "note": "± gives the expanded uncertainty stated by the source.", "data": [{"smiles": "CCO", "note": "[ethanol] + CCCCCCC", "values": [{"measurement": "mass density", "setting": "293.15 K, 100 kPa", "result": "789.4 ± 1", "unit": "kg/m3"}, {"measurement": "mass density", "setting": "293.15 K, 5000 kPa", "result": "793.5 ± 1", "unit": "kg/m3"}, {"measurement": "mass density", "setting": "293.15 K, 10000 kPa", "result": "797.5 ± 1", "unit": "kg/m3"}, {"measurement": "mass density", "setting": "293.15 K, 15000 kPa", "result": "801.4 ± 1", "unit": "kg/m3"}, {"measurement": "mass density", "setting": "293.15 K, 20000 kPa", "result": "805.2 ± 1", "unit": "kg/m3"}, {"measurement": "mass density", "setting": "293.15 K, 25000 kPa", "result": "808.7 ± 1", "unit": "kg/m3"}, {"measurement": "mass density", "setting": "293.15 K, 30000 kPa", "result": "812.1 ± 1.1", "unit": "kg/m3"}, {"measurement": "mass density", "setting": "293.15 K, 35000 kPa", "result": "815.3 ± 1.1", "unit": "kg/m3"}, {"measurement": "mass density", "setting": "293.15 K, 40000 kPa", "result": "818.6 ± 1.1", "unit": "kg/m3"}, {"measurement": "mass density", "setting": "293.15 K, 45000 kPa", "result": "821.6 ± 1.1", "unit": "kg/m3"}, {"measurement": "mass density", "setting": "293.15 K, 50000 kPa", "result": "824.6 ± 1.1", "unit": "kg/m3"}, {"measurement": "mass density", "setting": "293.15 K, 55000 kPa", "result": "827.5 ± 1.1", "unit": "kg/m3"}, {"measurement": "mass density", "setting": "293.15 K, 60000 kPa", "result": "830.2 ± 1.1", "unit": "kg/m3"}, {"measurement": "mass density", "setting": "293.15 K, 65000 kPa", "result": "832.9 ± 1.1", "unit": "kg/m3"}, {"measurement": "mass density", "setting": "303.15 K, 100 kPa", "result": "781.1 ± 1", "unit": "kg/m3"}, {"measurement": "mass density", "setting": "303.15 K, 5000 kPa", "result": "785.7 ± 1", "unit": "kg/m3"}, {"measurement": "mass density", "setting": "303.15 K, 10000 kPa", "result": "789.8 ± 1", "unit": "kg/m3"}, {"measurement": "mass density", "setting": "303.15 K, 15000 kPa", "result": "794 ± 1", "unit": "kg/m3"}, {"measurement": "mass density", "setting": "303.15 K, 20000 kPa", "result": "797.8 ± 1", "unit": "kg/m3"}, {"measurement": "mass density", "setting": "303.15 K, 25000 kPa", "result": "801.6 ± 1", "unit": "kg/m3"}, {"measurement": "mass density", "setting": "303.15 K, 30000 kPa", "result": "805 ± 1.1", "unit": "kg/m3"}, {"measurement": "mass density", "setting": "303.15 K, 35000 kPa", "result": "808.5 ± 1.1", "unit": "kg/m3"}, {"measurement": "mass density", "setting": "303.15 K, 40000 kPa", "result": "811.8 ± 1.1", "unit": "kg/m3"}, {"measurement": "mass density", "setting": "303.15 K, 45000 kPa", "result": "814.9 ± 1.1", "unit": "kg/m3"}, {"measurement": "mass density", "setting": "303.15 K, 50000 kPa", "result": "817.9 ± 1.1", "unit": "kg/m3"}, {"measurement": "mass density", "setting": "303.15 K, 55000 kPa", "result": "821.1 ± 1.1", "unit": "kg/m3"}, {"measurement": "mass density", "setting": "303.15 K, 60000 kPa", "result": "824 ± 1.1", "unit": "kg/m3"}, {"measurement": "mass density", "setting": "303.15 K, 65000 kPa", "result": "826.7 ± 1.1", "unit": "kg/m3"}, {"measurement": "mass density", "setting": "313.15 K, 100 kPa", "result": "772.3 ± 1", "unit": "kg/m3"}, {"measurement": "mass density", "setting": "313.15 K, 5000 kPa", "result": "776.9 ± 1", "unit": "kg/m3"}, {"measurement": "mass density", "setting": "313.15 K, 10000 kPa", "result": "781.5 ± 1", "unit": "kg/m3"}, {"measurement": "mass density", "setting": "313.15 K, 15000 kPa", "result": "785.8 ± 1", "unit": "kg/m3"}, {"measurement": "mass density", "setting": "313.15 K, 20000 kPa", "result": "789.8 ± 1", "unit": "kg/m3"}, {"measurement": "mass density", "setting": "313.15 K, 25000 kPa", "result": "793.7 ± 1", "unit": "kg/m3"}, {"measurement": "mass density", "setting": "313.15 K, 30000 kPa", "result": "797.4 ± 1.1", "unit": "kg/m3"}, {"measurement": "mass density", "setting": "313.15 K, 35000 kPa", "result": "801 ± 1.1", "unit": "kg/m3"}, {"measurement": "mass density", "setting": "313.15 K, 40000 kPa", "result": "804.4 ± 1.1", "unit": "kg/m3"}, {"measurement": "mass density", "setting": "313.15 K, 45000 kPa", "result": "807.8 ± 1.1", "unit": "kg/m3"}, {"measurement": "mass density", "setting": "313.15 K, 50000 kPa", "result": "810.8 ± 1.1", "unit": "kg/m3"}, {"measurement": "mass density", "setting": "313.15 K, 55000 kPa", "result": "813.7 ± 1.1", "unit": "kg/m3"}, {"measurement": "mass density", "setting": "313.15 K, 60000 kPa", "result": "816.6 ± 1.1", "unit": "kg/m3"}, {"measurement": "mass density", "setting": "313.15 K, 65000 kPa", "result": "819.5 ± 1.1", "unit": "kg/m3"}, {"measurement": "mass density", "setting": "323.15 K, 100 kPa", "result": "763.1 ± 1", "unit": "kg/m3"}, {"measurement": "mass density", "setting": "323.15 K, 5000 kPa", "result": "768 ± 1", "unit": "kg/m3"}, {"measurement": "mass density", "setting": "323.15 K, 10000 kPa", "result": "772.9 ± 1", "unit": "kg/m3"}, {"measurement": "mass density", "setting": "323.15 K, 15000 kPa", "result": "777.3 ± 1", "unit": "kg/m3"}, {"measurement": "mass density", "setting": "323.15 K, 20000 kPa", "result": "781.4 ± 1", "unit": "kg/m3"}, {"measurement": "mass density", "setting": "323.15 K, 25000 kPa", "result": "785.7 ± 1.1", "unit": "kg/m3"}, {"measurement": "mass density", "setting": "323.15 K, 30000 kPa", "result": "789.4 ± 1.1", "unit": "kg/m3"}, {"measurement": "mass density", "setting": "323.15 K, 35000 kPa", "result": "793.1 ± 1.1", "unit": "kg/m3"}, {"measurement": "mass density", "setting": "323.15 K, 40000 kPa", "result": "796.7 ± 1.1", "unit": "kg/m3"}, {"measurement": "mass density", "setting": "323.15 K, 45000 kPa", "result": "800.1 ± 1.1", "unit": "kg/m3"}, {"measurement": "mass density", "setting": "323.15 K, 50000 kPa", "result": "803.5 ± 1.1", "unit": "kg/m3"}, {"measurement": "mass density", "setting": "323.15 K, 55000 kPa", "result": "806.6 ± 1.1", "unit": "kg/m3"}, {"measurement": "mass density", "setting": "323.15 K, 60000 kPa", "result": "809.7 ± 1.1", "unit": "kg/m3"}, {"measurement": "mass density", "setting": "323.15 K, 65000 kPa", "result": "812.6 ± 1.1", "unit": "kg/m3"}, {"measurement": "mass density", "setting": "333.15 K, 100 kPa", "result": "754.2 ± 1", "unit": "kg/m3"}, {"measurement": "mass density", "setting": "333.15 K, 5000 kPa", "result": "759.4 ± 1", "unit": "kg/m3"}, {"measurement": "mass density", "setting": "333.15 K, 10000 kPa", "result": "764.6 ± 1", "unit": "kg/m3"}, {"measurement": "mass density", "setting": "333.15 K, 15000 kPa", "result": "769.4 ± 1", "unit": "kg/m3"}, {"measurement": "mass density", "setting": "333.15 K, 20000 kPa", "result": "773.8 ± 1", "unit": "kg/m3"}, {"measurement": "mass density", "setting": "333.15 K, 25000 kPa", "result": "777.8 ± 1.1", "unit": "kg/m3"}, {"measurement": "mass density", "setting": "333.15 K, 30000 kPa", "result": "781.7 ± 1.1", "unit": "kg/m3"}, {"measurement": "mass density", "setting": "333.15 K, 35000 kPa", "result": "785.6 ± 1.1", "unit": "kg/m3"}, {"measurement": "mass density", "setting": "333.15 K, 40000 kPa", "result": "789.3 ± 1.1", "unit": "kg/m3"}, {"measurement": "mass density", "setting": "333.15 K, 45000 kPa", "result": "792.8 ± 1.1", "unit": "kg/m3"}, {"measurement": "mass density", "setting": "333.15 K, 50000 kPa", "result": "796.3 ± 1.1", "unit": "kg/m3"}, {"measurement": "mass density", "setting": "333.15 K, 55000 kPa", "result": "799.7 ± 1.1", "unit": "kg/m3"}, {"measurement": "mass density", "setting": "333.15 K, 60000 kPa", "result": "802.9 ± 1.1", "unit": "kg/m3"}, {"measurement": "mass density", "setting": "333.15 K, 65000 kPa", "result": "806 ± 1.1", "unit": "kg/m3"}]}]}
